Patent US20260108600A1, “METHODS AND COMPOSITIONS RELATING TO IMPROVED IONIC LIQUID ADJUVANTS” (PRESIDENT AND FELLOWS OF HARVARD COLLEGE, priority 2022, published 2026)
Entries after “also recorded” stand apart in the source; their conditions may differ. Where two headings read alike, the source gives them in different places.

Columns and labels:
[1] = anion; cited from earlier work
OVA = target: T1, OVA (Gallus gallus, UniProt P01012); assay: Stability of OVA combined with IL adjuvants (dialysis/SEC, circular dichroism, SDS page); format: physicochemical
T1 sequence (P01012 1-386): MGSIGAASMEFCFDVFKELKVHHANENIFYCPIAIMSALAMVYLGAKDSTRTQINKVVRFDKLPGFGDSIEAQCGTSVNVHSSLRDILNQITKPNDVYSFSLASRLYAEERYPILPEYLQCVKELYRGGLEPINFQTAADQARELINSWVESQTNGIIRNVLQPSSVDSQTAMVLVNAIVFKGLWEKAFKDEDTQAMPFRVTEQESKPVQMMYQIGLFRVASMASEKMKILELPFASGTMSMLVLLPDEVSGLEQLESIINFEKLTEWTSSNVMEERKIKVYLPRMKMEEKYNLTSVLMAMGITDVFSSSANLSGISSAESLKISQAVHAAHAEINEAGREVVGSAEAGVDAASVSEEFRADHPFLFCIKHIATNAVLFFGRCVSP
Source text: Anions were varied based on hydrophobicity (FIG. 8). […] ILs were screened for: • a. Stability of OVA. […] In vitro immune cell maturation and activation.
Role of the payload. […] Simple dialysis was replaced by SEC to remove OVA from ChoShorb formulations.

primary dendritic cells = details: IL at varying concentrations, with or without OVA
Experimental: (§1) The impact of differential payloads impacting the ChoSorb response was investigated in vitro. The experiment was done with IL alone and IL+OVA at each concentration to understand how payload (OVA) impacts the cell death pathway since payload may impact the early cell death pathway. Cells were treated with IL at varying concentrations and with or without OVA, then stained with Annexin V and PI at 24 hours (FIGS. 28A-28B).

mytotubes (C2C12 cells) = details: IL at varying concentrations, with or without OVA
Experimental: as §1

C57BL/6 mice = system: C57BL/6 mice
Experimental: C57BL/6 mice received two immunizations with 10% IL (w/v) and ovalbumin as a model antigen, at day 0 and day 14.
(§2) Cytokine responses were measured 4 hours after injection.
Antibody responses were measured 14 and 28 days after injection.
T cell responses were measured 7, 14, 21, or 28 days after injection.

LPO expression = LPO expression with or without deferoxamine (ferroptosis indication); format: cell-based
Balb/c mice = system: Balb/c mice
Experimental: Balb/c mice received one immunization with 10% IL (w/v) and ovalbumin as a model antigen. The antibody and humoral response was then measured.
as §2
Antibody responses were measured 14 days after injection.

Balb/c and C57BL/6 mice = details: after priming and booster shot
Experimental: In vivo vaccination of OVA with IL adjuvants in Balb/c and C57BL/6 mice. Antigen-specific antibodies and CD8+ T cell responses were evaluated after priming and booster shot.

[2] = lower doses, comparing across IL concentration
[3] = 10% ChoSorb injections
Experimental: Blood was drawn 4 and 24 hours after the initial dose, and the levels of IL6 and MCP-1 measured (FIGS. 11A-11D). The levels of Tetramer cells were measured at Day 21 and Day 35 (FIGS. 12A-12D). […] The antibody response was measured (FIGS. 13A-13B).

[4] = 4 hours after injection, 10% IL (w/v) with ovalbumin

With `CC=C(C)C=C(C)C(=O)O` [2,4-Dimethyl-2,4-hexadienoic acid] as the compound, how does the LogP [1] read?
The LogP was 2.3.

With `CC/C=C\C=C\C(=O)O` [2,4-Heptadienoic acid, (2E,4Z)-] as the compound, how does the LogP [1] read?
The LogP was 1.8.

With `C=CCCC/C=C/C(=O)O` [2E,7-Octadienoic acid] as the compound, how does the LogP [1] read?
Its LogP is 2.2.

Which LogP [1] does the source give for `C=CC=CCCC(=O)O` [4,6-Heptadienoic acid] here?
Its LogP is 1.5.

Which LogP [1] does the source give for `C=CC=CCCCC(=O)O` [5,7-Octadienoic acid] here?
Its LogP is 1.8.

For `CCCCCCCCC=CCCCCCC=CCCC(=O)O` [11,4-Eicosadienoic Acid], which LogP [1] is on record?
The LogP was 7.9.

For `CC(C)=C(C)/C=C/C(=O)O` [(2E)-4,5-dimethyl-2,4-hexadienoic acid], which LogP [1] is on record?
The LogP was 2.5.

For `C=CCC/C=C/C(=O)O` [(2E)-hepta-2,6-dienoic acid], which LogP [1] is on record?
The LogP was 1.6.

For `C/C=C/C/C=C/C(=O)O` [(2E,5E)-2,5-Heptadienoic acid], which LogP [1] is on record?
The LogP was 1.6.

Which LogP [1] does the source give for `C/C=C/CC/C=C/C(=O)O` [(2E,6E)-2,6-Octadienoic acid] here?
Its LogP is 1.8.

With `CCC/C=C/C=C\C(=O)O` [(2Z,4E)-Octa-2,4-dienoic acid] as the compound, how does the LogP [1] read?
The LogP was 2.3.

With `C=CCC/C=C/CC(=O)O` [(3E)-3,7-octadienoic acid] as the compound, how does the LogP [1] read?
Its LogP is 1.8.

Which LogP [1] does the source give for `CCC/C=C\CC/C=C\CCCCCC(=O)O` [(7Z,11Z)-pentadeca-7,11-dienoate] here?
Its LogP is 5.4.

With `C/C=C\CC/C=C\CCCCCCCC(=O)O` [(9Z,13Z)-pentadeca-9,13-dienoate] as the compound, how does the LogP [1] read?
Its LogP is 5.5.

With `C/C=C/C=C/C(=O)[O-].C[N+](C)(C)CCO` [ChoSorb, choline:sorbic acid] as the compound, how does the “antigen (OVA) stability in IL formulation” value (OVA) read?
The value was “preserve antigen stability; also recorded: stable”.

And the “binding of OVA by IL” value (OVA; simple dialysis replaced by SEC to remove OVA)?
Its value is “bound strongly”.

What about the “apoptosis (Annexin V and PI)” value (primary dendritic cells) of the same compound?
Its value is “apoptosis occurs after 24 hours”.

What about the “apoptosis (Annexin V and PI)” value (mytotubes (C2C12 cells)) of the same compound?
Its value is “apoptosis occurs after 24 hours”.

What about the “chemokine and cytokine levels in the serum” value (24 hour mark) of the same compound?
Its value is “significantly higher than saline”.

What about the “chemokine and cytokine levels in the serum” value (48 hour mark) of the same compound?
The value was “no significant difference from saline”.

And the “CD4+ T cells” value (among infiltrating cell types)?
Its value is “significant increase”.

And the “CD45+ cell infiltration into the muscle” value (compared to saline)?
The value was “more significant rate”.

What about the inflammatory monocytes (draining lymph node) of the same compound?
The inflammatory monocytes was “increase”.

And the “mature resident cDC1 dendritic cells” value (draining lymph node)?
The value was “increase”.

And the Neutrophils (draining lymph node (dLN) after IL injection)?
The Neutrophils was “spiked”.

And the Monocytes (injection site)?
The Monocytes was “increased significantly”.

What about the inflammatory monocytes (injection site) of the same compound?
Its inflammatory monocytes is “increased significantly”.

What about the IL-6 (serum) of the same compound?
Its IL-6 is “upregulated”.

And the MCP-1 (serum)?
Its MCP-1 is “upregulated”.

And the IL-6 concentrations (C57BL/6 mice; [4])?
The IL-6 concentrations was “significantly higher”.

And the “Total IgG antibody titers” value (C57BL/6 mice; Day 14)?
Its value is “significantly increased”.

What about the “CD4+ memory T cells” value (C57BL/6 mice; Day 21) of the same compound?
The value was “significant increase”.

What about the “Th1/Th2 antibody response (IgG2c, IgG1)” value (C57BL/6 mice; Day 28) of the same compound?
Its value is “balanced immune response”.

And the “Total IgG antibody titers” value (C57BL/6 mice; Day 28)?
Its value is “significantly increased”.

What about the “level of antigen-specific T cells (OVA-tetramer staining of CD8+ T cells)” value (C57BL/6 mice; especially after a booster vaccination) of the same compound?
Its value is “significantly increased”.

What about the LPO expression (LPO expression; early time points) of the same compound?
The LPO expression was “induces LPO expression”.

And the LPO expression (LPO expression; treated with deferoxamine (DFO), an iron chelator)?
Its LPO expression is “not when treated with deferoxamine (DFO)”.

What about the IL-6 concentrations (Balb/c mice; [4]) of the same compound?
The IL-6 concentrations was “significantly higher”.

What about the “Total IgG antibody titers” value (Balb/c mice; Day 14) of the same compound?
The value was “significantly increased”.

What about the “antigen-specific immune response (T-cell and antibody)” value (Balb/c and C57BL/6 mice) of the same compound?
The value was “create an antigen-specific immune response in both T-cell and antibody responses”.

What about the “tetramer cell levels, separate vs combo delivery” value [2] of the same compound?
The value was “outperformed combo doses”.

And the “muscle tightness after injection” value [3]?
Its value is “cause muscle tightness over time”.

For `CC=CCCC=CCC(=O)O` [Nona-3,7-dienoate], which LogP [1] is on record?
Its LogP is 2.6.

Which LogP [1] does the source give for `CCC=CC=CCC(=O)O` [Octa-3,5-dienoic acid] here?
The LogP was 1.8.

Which LogP [1] does the source give for `C/C=C/C=C/C(=O)O` [Sorbic Acid] here?
Its LogP is 1.43.
